Patent US20230117324A1, “OXAZINE MONOACYLGLYCEROL LIPASE (MAGL) INHIBITORS” (Hoffmann-La Roche Inc., priority 2018, published 2023)
pIC50: −log10 of the molar value.

Biological target: T1, MAGL (Homo sapiens, UniProt Q99685)
T1 sequence (Q99685 1-303): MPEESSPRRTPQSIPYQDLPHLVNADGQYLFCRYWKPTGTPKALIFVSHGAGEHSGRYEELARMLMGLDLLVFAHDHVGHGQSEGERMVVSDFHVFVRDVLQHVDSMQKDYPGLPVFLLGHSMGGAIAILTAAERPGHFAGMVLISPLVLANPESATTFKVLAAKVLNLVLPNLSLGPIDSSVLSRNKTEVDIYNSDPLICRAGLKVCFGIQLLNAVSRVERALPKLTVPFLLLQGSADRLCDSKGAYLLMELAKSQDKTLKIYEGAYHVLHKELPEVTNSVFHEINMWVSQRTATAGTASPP
Test: MAGL inhibition, 2-AG assay (hydrolysis of 2-arachidonoylglycerol, arachidonic acid by mass spectrometry)
Assay type: biochemical
Settings: 2-AG assay (footnote [b])
Method: Alternatively, compounds were profiled for MAGL inhibitory activity by determining the enzymatic activity by following the hydrolysis of the natural substrate 2-arachidonoylglycerol (2-AG) resulting in arachidonic acid, which can be followed by mass spectrometry. This assay is hereinafter abbreviated “2-AG assay”.
The 2-AG assay was carried out in 384 well assay plates (PP, Greiner Cat #784201) in a total volume of 20 μL. Compound dilutions were made in 100% DMSO (VWR Chemicals 23500.297) in a polypropylene plate in 3-fold dilution steps to give a final concentration range in the assay from 12.5 μM to […]. 0.25 μL compound dilutions (100% DMSO) were added to 9 μL MAGL in assay buffer (50 mM TRIS (GIBCO, 15567-027), 1 mM EDTA (Fluka, 03690-100 mL), 0.01% (v/v) Tween. After shaking, the plate was incubated for 15 min at RT. To start the reaction, 10 μL 2-arachidonoylglycerol in assay buffer was added. The final concentrations in the assay was […] and 8 μM 2-arachidonoylglyerol. After shaking and 30 min incubation at RT, the reaction was quenched by the addition of 40 μL of ACN containing 4 μM of d8-arachidonic acid. The amount of arachidonic acid was traced by an online SPE system (Agilent Rapidfire) coupled to a triple quadrupole mass spectrometer (Agilent 6460). A C18 SPE cartridge (G9205A) was used in an ACN/water liquid setup. The mass spectrometer was operated in negative electrospray mode following the mass transitions 303.1→259.1 for arachidonic acid and 311.1→267.0 for d8-arachidonic acid. The activity of the compounds was calculated based on the ratio of intensities [arachidonic acid/d8-arachidonic acid].

Row | pIC50 | SMILES
1 | 6.26 | Cn1ncc2c(C3CN(C(=O)N4CC[C@@H]5OCC(=O)N[C@@H]5C4)C3)cccc21 [Example 215, (4aR,8aS)-6-(3-(1-Methyl-1H-indazol-4-yl)azetidine-1-carbonyl)hexahydro-2H-pyrido[4,3-b][1,4]oxazin-3(4H)-one]
2 | 7.52 | Cc1ccc(C2CN(C(=O)N3CC[C@@H]4OCC(=O)N[C@@H]4C3)C2)cc1C [Example 259, (4aR,8aS)-6-[3-(3,4-Dimethylphenyl)azetidine-1-carbonyl]-4,4a,5,7,8,8a-hexahydropyrido [4,3-b][1,4]oxazin-3-one]
3 | 8.40 | O=C1CO[C@H]2CCN(C(=O)N3CCC(C(c4ccc(F)cc4)c4ccc(OCCF)cc4)CC3)C[C@H]2N1 (single isomer, unassigned) [Example 100, (4aR,8aS)-6-(4-((R or S)-(4-(2-Fluoroethoxy)phenyl)(4-fluorophenyl)methyl)piperidine-1-carbonyl)hexahydro-2H-pyrido[4,3-b][1,4]oxazin-3(4H)-one]
4 | 6.29 | CC(c1ccc(C(F)(F)F)cc1)C1CCN(C(=O)N2CC[C@@H]3OCC(=O)N[C@@H]3C2)CC1 (single isomer, unassigned) [Example 47, (4aR,8aS)-6-(4-((S or R)-1-(4-(Trifluoromethyl)phenyl)ethyl)piperidine-1-carbonyl)hexahydro-2H-pyrido[4,3-b][1,4]oxazin-3(4H)-one]
5 | 10.00 | Cc1ccc(C(c2ccccc2)C2CCN(C(=O)N3CC[C@@H]4OCC(=O)N[C@@H]4C3)CC2)cc1 (single isomer, unassigned) [Example 85, (4aR,8aS)-6-(4-((R or S)-Phenyl(p-tolyl)methyl)piperidine-1-carbonyl)hexahydro-2H-pyrido[4,3-b][1,4]oxazin-3(4H)-one]
6 | 7.31 | CC(OC1CN(C(=O)N2CC[C@@H]3OCC(=O)N[C@@H]3C2)C1)c1ccc(C(F)(F)F)cc1 (single isomer, unassigned) [Example 114, (4aR,8aS)-6-(3-(1-(R or S)-(4-(Trifluoromethyl)phenyl)ethoxy)azetidine-1-carbonyl)hexahydro-2H-pyrido[4,3-b][1,4]oxazin-3(4H)-one]
7 | 5.80 | COc1ccc(C2CN(C(=O)N3CC[C@@H]4OCC(=O)N[C@@H]4C3)C2)cn1 [Example 183, (4aR,8aS)-6-[3-(6-Methoxypyridin-3-yl)azetidine-1-carbonyl]-4,4a,5,7,8,8a-hexahydropyrido[4,3-b][1,4]oxazin-3-one]

Further lines, the compound ahead of its results:

Row | SMILES | pIC50
8 | COC1(C)CN(c2ccc(C3CN(C(=O)N4CC[C@@H]5OCC(=O)N[C@@H]5C4)C3)cc2)C1 [Example 236, (4aR,8aS)-6-(3-(4-(3-Methoxy-3-methylazetidin-1-yl)phenyl)azetidine-1-carbonyl)hexahydro-2H-pyrido[4,3-b][1,4]oxazin-3(4H)-one] | 7.82
9 | COc1cccc(C(c2ccc(F)cc2)C2CCN(C(=O)N3CC[C@@H]4OCC(=O)N[C@@H]4C3)CC2)c1 (single isomer, unassigned) [Example 63, (4aR,8aS)-6-(4-((R or S)-(4-Fluorophenyl)(3-methoxyphenyl)methyl)piperidine-1-carbonyl)hexahydro-2H-pyrido[4,3-b][1,4]oxazin-3(4H)-one] | 9.52
10 | O=C1CO[C@H]2CCN(C(=O)N3CC(c4ccc(C(F)(F)F)cc4)C3)C[C@H]2N1 [Example 146, (4aR,8aS)-6-(3-(4-(Trifluoromethyl)phenyl)azetidine-1-carbonyl)hexahydro-2H-pyrido[4,3-b][1,4]oxazin-3(4H)-one] | 7.47
11 | O=C1CO[C@H]2CCN(C(=O)N3CC(c4ccc(OC(F)(F)F)c(C(F)(F)F)c4)C3)C[C@H]2N1 [Example 243, (4aR,8aS)-6-(3-(4-(Trifluoromethoxy)-3-(trifluoromethyl)phenyl)azetidine-1-carbonyl)hexahydro-2H-pyrido[4,3-b][1,4]oxazin-3(4H)-one] | 8.00
12 | COc1ccc(C(c2cccnc2)C2CCN(C(=O)N3CC[C@@H]4OCC(=O)N[C@@H]4C3)CC2)cc1OC (single isomer, unassigned) [Example 136, (4aR,8aS)-6-[4-[(S or R)-(3,4-dimethoxyphenyl)-(3-pyridyl)methyl]piperidine-1-carbonyl]-4,4a,5,7,8,8a-hexahydropyrido[4,3-b][1,4]oxazin-3-one] | 7.85
13 | O=C1CO[C@H]2CCN(C(=O)N3CC(c4ccc(C56CC(C5)C6)cc4)C3)C[C@H]2N1 [Example 206, (4aR,8aS)-6-(3-(4-(Bicyclo[1.1.1]pentan-1-yl)phenyl)azetidine-1-carbonyl)hexahydro-2H-pyrido[4,3-b][1,4]oxazin-3(4H)-one] | 8.30
14 | CC1C(c2ccc(OC(F)(F)F)cc2)CN1C(=O)N1CC[C@@H]2OCC(=O)N[C@@H]2C1 (stereo partly drawn) [Example 231, (4aR,8aS)-6-(2-Methyl-3-(4-(Trifluoromethoxy)phenyl)azetidine-1-carbonyl)hexahydro-2H-pyrido[4,3-b][1,4]oxazin-3(4H)-one] | 6.94
15 | O=C1CO[C@H]2CCN(C(=O)N3CCC(C(c4ccccc4)c4cccnn4)CC3)C[C@H]2N1 (stereo partly drawn) [Example 218, (4aR,8aS)-6-[4-[Phenyl(pyridazin-3-yl)methyl]piperidine-1-carbonyl]-4,4a,5,7,8,8a-hexahydropyrido[4,3-b][1,4]oxazin-3-one] | 7.27
16 | CC(F)(F)c1ccc(C2CN(C(=O)N3CC[C@@H]4OCC(=O)N[C@@H]4C3)C2)cc1 [Example 148, (4aR,8aS)-6-(3-(4-(1,1-Difluoroethyl)phenyl)azetidine-1-carbonyl)hexahydro-2H-pyrido[4,3-b][1,4]oxazin-3(4H)-one] | 7.85
17 | O=C1CO[C@H]2CCN(C(=O)N3CC(c4ccc(Cl)nc4)C3)C[C@H]2N1 [Example 145, (4aR,8aS)-6-(3-(6-Chloropyridin-3-yl)azetidine-1-carbonyl)hexahydro-2H-pyrido[4,3-b][1,4]oxazin-3(4H)-one] | 5.37
18 | O=C1CO[C@H]2CCN(C(=O)N3CCC(C(COCC(F)(F)F)c4ccc(F)cc4)CC3)C[C@H]2N1 (stereo partly drawn) [Example 56, (4aR,8aS)-6-(4-(1-(4-Fluorophenyl)-2-(2,2,2-trifluoroethoxy)ethyl)piperidine-1-carbonyl)hexahydro-2H-pyrido[4,3-b][1,4]oxazin-3(4H)-one] | 7.68
19 | O=C1CO[C@H]2CCN(C(=O)N3CC(C(OCC(F)(F)F)c4ccc(F)cc4)C3)C[C@H]2N1 (single isomer, unassigned) [Example 105, (4aR,8aS)-6-[3-(S or R)-[(4-Fluorophenyl)-(2,2,2-trifluoroethoxy)methyl]azetidine-1-carbonyl]-4,4a,5,7,8,8a-hexahydropyrido[4,3-b][1,4]oxazin-3-one] | 6.36
20 | Cc1noc(CC(c2ccc(F)cc2)C2CCN(C(=O)N3CC[C@@H]4OCC(=O)N[C@@H]4C3)CC2)n1 (single isomer, unassigned) [Example 59, (4aR,8aS)-6-(4-((R or S)-1-(4-Fluorophenyl)-2-(3-methyl-1,2,4-oxadiazol-5-yl)ethyl)piperidine-1-carbonyl)hexahydro-2H-pyrido[4,3-b][1,4]oxazin-3(4H)-one] | 7.22
